In patent publication US10189845B2, “4,6-substituted-pyrazolo[1,5-a]pyrazines as janus kinase inhibitors” (ARRAY BIOPHARMA INC., priority 2014, dated 2019) one finds IC50 data, which are given here for 19 compounds.

Structures are written as SMILES. Counter-ions that a name gives are not always drawn. Like-named read-outs stand apart in the source and are kept apart here.

By IC50 is commonly meant the concentration needed to halve the response being measured.

Type in all cases: biochemical
The target in one experiment is Human Tyk2 kinase domain (Homo sapiens (Human), UniProt P29597). Nature of the experiment: Tyk2 Inhibition Assay (Example A, Omnia kinase fluorescence peptide substrate assay). Particulars: TYK2 Enzyme IC50 1 mM ATP, averaged IC50 ranges. The method in brief:
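IC50 values come from a 4-parameter logistic fit of percent-of-control data, with compounds at 2% final DMSO. Reactions held 1 nM His-tag-cleaved Tyk2 (aa 886–1187), 8 μM Omnia Y12 peptide and 1 mM ATP in pH 7.4 HEPES buffer with 10 mM MgCl2, Triton X-100 and DTT. Sox fluorescence (360/485 nm) was monitored kinetically over 45 min.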

The target of the next experiment is JAK1 (Homo sapiens (Human), UniProt P23458). As to the kind of experiment: JAK1 Inhibition Assay (Example B, Omnia kinase fluorescence peptide substrate assay). The method in brief: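 Kinetic fluorescence read (360 nm excitation, 485 nm emission, every 50 s over 45 min) of Omnia Y12 peptide (8 μM) phosphorylation by 12.5 nM human JAK1 at 1 mM ATP. Buffer: HEPES pH 7.4, MgCl2, Triton X-100, DTT; 2% DMSO. IC50 = concentration giving 50 POC on logistic curve.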

A further experiment deals with JAK2 (Homo sapiens (Human), UniProt O60674). As to the kind of experiment: JAK2 Inhibition Assay (Example C, Omnia kinase fluorescence peptide substrate assay). Particulars: JAK2 Enzyme IC50 1 mM ATP, averaged IC50 ranges. The method in brief:
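Kinetic fluorescence read of Omnia Y7 peptide (10 μM) phosphorylation, ex 360/em 485 nm every 50 s over 45 min, by 4 nM JAK2 at 1 mM ATP. Buffer 25 mM HEPES pH 7.4, 10 mM MgCl2, 0.01% Triton X-100, 1 mM DTT; final DMSO 2%. Percent-of-control values fitted by 4-parameter logistic for IC50.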

Another experiment deals with JAK3 (Homo sapiens (Human), UniProt P52333). As to the kind of experiment: JAK3 Inhibition Assay (Example D, Omnia kinase fluorescence peptide substrate assay). An outline of the steps: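 Omnia Sox-peptide kinetic read (ex 360 nm, em 485 nm, every 50 s over 45 min) tracked phosphorylation of 10 μM Y7 peptide by 2 nM recombinant JAK3 at 1 mM ATP. Buffer: 25 mM HEPES pH 7.4, 10 mM MgCl2, 0.01% Triton X-100, 1 mM DTT, with 2% DMSO final.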

Setting [1] is: JAK1 Enzyme IC50 1 mM ATP, 1 mM ATP, averaged IC50 ranges.

Chain of JAK3 (P52333 whole entry): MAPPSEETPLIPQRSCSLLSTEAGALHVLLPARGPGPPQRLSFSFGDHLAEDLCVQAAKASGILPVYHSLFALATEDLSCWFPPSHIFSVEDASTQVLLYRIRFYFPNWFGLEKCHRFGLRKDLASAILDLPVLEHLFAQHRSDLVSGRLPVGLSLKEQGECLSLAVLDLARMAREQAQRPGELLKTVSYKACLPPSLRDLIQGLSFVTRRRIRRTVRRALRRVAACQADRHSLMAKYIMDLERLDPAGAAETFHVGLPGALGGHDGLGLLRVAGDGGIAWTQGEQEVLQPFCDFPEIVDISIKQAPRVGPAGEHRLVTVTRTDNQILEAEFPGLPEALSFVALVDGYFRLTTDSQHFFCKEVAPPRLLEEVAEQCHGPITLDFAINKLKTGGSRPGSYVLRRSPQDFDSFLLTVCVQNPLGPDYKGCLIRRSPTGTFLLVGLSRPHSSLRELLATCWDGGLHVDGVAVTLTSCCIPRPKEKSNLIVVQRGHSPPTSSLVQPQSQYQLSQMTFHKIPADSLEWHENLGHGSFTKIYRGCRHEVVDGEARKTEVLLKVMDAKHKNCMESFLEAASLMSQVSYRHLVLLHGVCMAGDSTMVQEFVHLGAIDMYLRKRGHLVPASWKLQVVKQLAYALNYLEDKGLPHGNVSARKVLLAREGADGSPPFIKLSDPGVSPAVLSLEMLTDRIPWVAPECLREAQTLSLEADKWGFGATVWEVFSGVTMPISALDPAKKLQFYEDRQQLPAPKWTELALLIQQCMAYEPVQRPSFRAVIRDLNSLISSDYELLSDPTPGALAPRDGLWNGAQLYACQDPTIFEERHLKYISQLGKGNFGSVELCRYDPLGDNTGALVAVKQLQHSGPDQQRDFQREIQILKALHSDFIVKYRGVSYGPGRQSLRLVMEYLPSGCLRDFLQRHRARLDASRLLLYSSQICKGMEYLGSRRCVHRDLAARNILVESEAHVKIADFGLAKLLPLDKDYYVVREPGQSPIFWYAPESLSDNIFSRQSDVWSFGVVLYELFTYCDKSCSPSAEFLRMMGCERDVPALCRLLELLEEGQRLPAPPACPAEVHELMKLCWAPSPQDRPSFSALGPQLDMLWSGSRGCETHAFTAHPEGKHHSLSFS
Chain of JAK1 (P23458 whole entry): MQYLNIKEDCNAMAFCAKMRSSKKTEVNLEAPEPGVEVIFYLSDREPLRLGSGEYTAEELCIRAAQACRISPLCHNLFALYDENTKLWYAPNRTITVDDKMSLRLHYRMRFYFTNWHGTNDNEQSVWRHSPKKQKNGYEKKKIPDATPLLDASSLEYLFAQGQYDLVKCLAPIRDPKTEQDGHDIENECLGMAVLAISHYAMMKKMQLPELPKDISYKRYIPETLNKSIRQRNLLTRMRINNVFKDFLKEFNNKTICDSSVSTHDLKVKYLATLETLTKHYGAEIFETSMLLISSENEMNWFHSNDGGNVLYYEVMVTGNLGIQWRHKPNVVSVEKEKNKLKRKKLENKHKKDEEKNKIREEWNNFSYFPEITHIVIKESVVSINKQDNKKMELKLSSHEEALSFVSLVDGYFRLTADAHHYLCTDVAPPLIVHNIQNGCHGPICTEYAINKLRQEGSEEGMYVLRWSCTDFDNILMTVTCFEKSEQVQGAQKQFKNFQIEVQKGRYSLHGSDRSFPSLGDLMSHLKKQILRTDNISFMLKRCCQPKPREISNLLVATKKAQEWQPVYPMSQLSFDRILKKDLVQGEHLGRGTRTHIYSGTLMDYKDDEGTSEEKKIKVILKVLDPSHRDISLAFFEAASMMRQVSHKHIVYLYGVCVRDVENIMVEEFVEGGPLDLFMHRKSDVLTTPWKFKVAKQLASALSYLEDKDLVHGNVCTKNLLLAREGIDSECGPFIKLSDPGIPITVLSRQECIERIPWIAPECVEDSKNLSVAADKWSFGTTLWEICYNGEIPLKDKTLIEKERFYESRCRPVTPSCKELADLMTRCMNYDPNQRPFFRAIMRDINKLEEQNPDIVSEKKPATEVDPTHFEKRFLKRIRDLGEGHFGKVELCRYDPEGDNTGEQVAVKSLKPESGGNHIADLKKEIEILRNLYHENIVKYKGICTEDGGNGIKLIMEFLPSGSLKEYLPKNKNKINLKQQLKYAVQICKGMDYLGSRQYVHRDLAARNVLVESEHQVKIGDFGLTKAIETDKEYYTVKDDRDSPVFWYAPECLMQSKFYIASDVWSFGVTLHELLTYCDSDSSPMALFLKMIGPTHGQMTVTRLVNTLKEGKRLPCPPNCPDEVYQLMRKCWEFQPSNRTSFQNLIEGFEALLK
Chain of JAK2 (O60674 whole entry): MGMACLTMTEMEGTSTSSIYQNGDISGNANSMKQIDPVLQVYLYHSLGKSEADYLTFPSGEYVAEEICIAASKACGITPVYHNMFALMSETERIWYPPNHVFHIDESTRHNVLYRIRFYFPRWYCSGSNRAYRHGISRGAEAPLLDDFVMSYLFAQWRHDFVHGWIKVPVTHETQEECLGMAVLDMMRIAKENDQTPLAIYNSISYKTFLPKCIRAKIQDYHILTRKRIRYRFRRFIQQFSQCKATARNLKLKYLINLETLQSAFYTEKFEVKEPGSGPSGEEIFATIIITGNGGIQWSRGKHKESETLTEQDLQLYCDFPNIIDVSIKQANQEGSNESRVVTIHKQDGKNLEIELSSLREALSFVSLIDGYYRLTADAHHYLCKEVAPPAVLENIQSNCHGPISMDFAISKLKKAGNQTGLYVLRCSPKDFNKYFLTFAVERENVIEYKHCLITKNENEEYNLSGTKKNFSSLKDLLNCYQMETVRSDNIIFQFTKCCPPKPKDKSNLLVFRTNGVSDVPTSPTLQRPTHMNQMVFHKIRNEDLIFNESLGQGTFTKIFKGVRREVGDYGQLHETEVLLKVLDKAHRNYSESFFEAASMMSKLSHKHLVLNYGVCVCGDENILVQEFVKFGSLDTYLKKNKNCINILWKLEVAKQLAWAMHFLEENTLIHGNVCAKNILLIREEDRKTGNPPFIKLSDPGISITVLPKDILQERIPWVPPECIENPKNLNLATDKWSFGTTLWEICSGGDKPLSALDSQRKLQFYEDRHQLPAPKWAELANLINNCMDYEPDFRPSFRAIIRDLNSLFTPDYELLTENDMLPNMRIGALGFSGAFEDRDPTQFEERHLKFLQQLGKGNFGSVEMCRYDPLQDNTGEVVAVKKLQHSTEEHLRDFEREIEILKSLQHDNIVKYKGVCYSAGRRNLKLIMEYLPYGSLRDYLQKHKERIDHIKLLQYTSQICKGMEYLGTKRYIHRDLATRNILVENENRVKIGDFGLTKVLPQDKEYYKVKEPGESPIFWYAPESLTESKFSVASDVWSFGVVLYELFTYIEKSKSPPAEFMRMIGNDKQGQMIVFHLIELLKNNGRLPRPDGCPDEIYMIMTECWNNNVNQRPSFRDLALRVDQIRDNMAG
Chain of Human Tyk2 kinase domain (P29597 886-1187): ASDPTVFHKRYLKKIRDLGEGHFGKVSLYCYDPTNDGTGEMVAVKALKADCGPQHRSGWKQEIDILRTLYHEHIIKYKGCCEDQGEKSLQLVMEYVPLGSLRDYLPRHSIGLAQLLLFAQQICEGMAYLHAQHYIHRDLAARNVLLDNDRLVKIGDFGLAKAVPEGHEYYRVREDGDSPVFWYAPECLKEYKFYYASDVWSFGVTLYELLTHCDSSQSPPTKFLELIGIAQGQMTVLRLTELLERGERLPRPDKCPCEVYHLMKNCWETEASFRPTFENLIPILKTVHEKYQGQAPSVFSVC

Consider `CCC(CC)n1cc(-c2nc(-c3cnn(C4CN(C(=O)C(=O)N(C)C)C4)c3)cn3nccc23)cn1` [Example 182, N,N-dimethyl-2-oxo-2-(3-(4-(4-(1-(pentan-3-yl)-1H-pyrazol-4-yl)pyrazolo[1,5-a]pyrazin-6-yl)-1H-pyrazol-1-yl)azetidin-1-yl)acetamide], for which the IC50 was in the range of 0.01 to 0.1 µM on Human Tyk2 kinase domain, 0.1 to 1 µM on JAK1, 0.01 to 0.1 µM against JAK2 and 1 to 10 µM on JAK3.

Turning to `CCC(CC)n1cc(-c2nc(-c3cnn(C[C@H](N)C(C)(C)O)c3)cn3nccc23)cn1` [Example 183, (S)-3-amino-2-methyl-4-(4-(4-(1-(pentan-3-yl)-1H-pyrazol-4-yl)pyrazolo[1,5-a]pyrazin-6-yl)-1H-pyrazol-1-yl)butan-2-ol], the IC50 on Human Tyk2 kinase domain is 0.01 to 0.1 µM; against JAK1 it was 1 to 10 µM; against JAK2, 0.01 to 0.1 µM; on JAK3, 1 to 10 µM.

Take `CCC(CC)n1cc(-c2nc(-c3cnn(CC4(O)CCNCC4)c3)cn3nccc23)cn1` [Example 184, 4-((4-(4-(1-(pentan-3-yl)-1H-pyrazol-4-yl)pyrazolo[1,5-a]pyrazin-6-yl)-1H-pyrazol-1-yl)methyl)piperidin-4-ol]: the half-maximal inhibitory concentration (IC50) was in the range of 0.1 to 1 µM against Human Tyk2 kinase domain, 1 to 10 µM against JAK1 (setting [1]), 0.1 to 1 µM at JAK2 and 1 to 10 µM on JAK3.

Turning to `CCC(CC)n1cc(-c2nc(-c3cnn(CC4(O)CCN(C(C)=O)CC4)c3)cn3nccc23)cn1` [Example 185, 1-(4-hydroxy-4-((4-(4-(1-(pentan-3-yl)-1H-pyrazol-4-yl)pyrazolo[1,5-a]pyrazin-6-yl)-1H-pyrazol-1-yl)methyl)piperidin-1-yl)ethanone], the IC50 on Human Tyk2 kinase domain fell in the range of 0.1 to 1 µM; at JAK1 it was 0.1 to 1 µM; against JAK2, 0.1 to 1 µM; on JAK3, 1 to 10 µM.

As to `CCC(CC)n1cc(-c2nc(-c3cnn(C4CN(C(=O)CN)C4)c3)cn3nccc23)cn1` [Example 186, 2-amino-1-(3-(4-(4-(1-(pentan-3-yl)-1H-pyrazol-4-yl)pyrazolo[1,5-a]pyrazin-6-yl)-1H-pyrazol-1-yl)azetidin-1-yl)ethanone], the IC50 is 0.01 to 0.1 µM against Human Tyk2 kinase domain, 1 to 10 µM against JAK1, 0.01 to 0.1 µM on JAK2 and 1 to 10 µM against JAK3.

`CCC(CC)n1cc(-c2nc(-c3cnn(C4CN(C(=O)CNC)C4)c3)cn3nccc23)cn1` [Example 187, 2-(methylamino)-1-(3-(4-(4-(1-(pentan-3-yl)-1H-pyrazol-4-yl)pyrazolo[1,5-a]pyrazin-6-yl)-1H-pyrazol-1-yl)azetidin-1-yl)ethanone bis(2,2,2-trifluoroacetate)]: the IC50 against Human Tyk2 kinase domain was 0.01 to 0.1 µM; at JAK1 it was 0.1 to 1 µM; against JAK2, 0.01 to 0.1 µM; against JAK3, 1 to 10 µM.

In the case of `CCC(CC)n1cc(-c2nc(-c3cnn([C@@H]4CCNC[C@H]4O)c3)cn3nccc23)cn1` [Example 188, (3R,4R)-4-(4-(4-(1-(pentan-3-yl)-1H-pyrazol-4-yl)pyrazolo[1,5-a]pyrazin-6-yl)-1H-pyrazol-1-yl)piperidin-3-ol], the IC50 lay in the range of 0.01 to 0.1 µM against Human Tyk2 kinase domain, 1 to 10 µM against JAK1, 0.01 to 0.1 µM against JAK2 and 1 to 10 µM on JAK3.

Take `CCC(CC)n1cc(-c2nc(-c3cnn([C@@H]4CCC[C@@H]4O)c3)cn3nccc23)cn1` [Example 189, (1S,2R)-2-(4-(4-(1-(pentan-3-yl)-1H-pyrazol-4-yl)pyrazolo[1,5-a]pyrazin-6-yl)-1H-pyrazol-1-yl)cyclopentanol]: the IC50 fell in the range of 0.01 to 0.1 µM against Human Tyk2 kinase domain, 1 to 10 µM at JAK1 (setting [1]), 0.01 to 0.1 µM against JAK2 and 1 to 10 µM on JAK3.

For `CCC(CC)n1cc(-c2nc(-c3cnn(CC(C)(C)CO)c3)cn3nccc23)cn1` [Example 191, 2,2-dimethyl-3-(4-(4-(1-(pentan-3-yl)-1H-pyrazol-4-yl)pyrazolo[1,5-a]pyrazin-6-yl)-1H-pyrazol-1-yl)propan-1-ol], the IC50 at Human Tyk2 kinase domain fell in the range of 0.01 to 0.1 µM; on JAK1 (setting [1]) it was 0.01 to 0.1 µM; against JAK2, 0.01 to 0.1 µM; at JAK3 it was 1 to 10 µM.

Consider `CCC(CC)n1cc(-c2nc(-c3cnn(CC4(CO)CC4)c3)cn3nccc23)cn1` [Example 192, (1-((4-(4-(1-(pentan-3-yl)-1H-pyrazol-4-yl)pyrazolo[1,5-a]pyrazin-6-yl)-1H-pyrazol-1-yl)methyl)cyclopropyl)methanol], for which the IC50 against Human Tyk2 kinase domain is 0.01 to 0.1 µM; against JAK1 (setting [1]) it was 0.01 to 0.1 µM; on JAK2, 0.01 to 0.1 µM; against JAK3, 1 to 10 µM.

On to `CCC(n1cc(-c2nc(-c3cnn(C[C@@H](O)CO)c3)cn3nccc23)cn1)C(F)(F)F` (stereo partly drawn) [Example 193, (2R)-3-(4-(4-(1-(1,1,1-trifluorobutan-2-yl)-1H-pyrazol-4-yl)pyrazol[1,5-a]pyrazin-6-yl)-1H-pyrazol-1-yl)propane-1,2-diol], for which the half-maximal inhibitory concentration (IC50) against Human Tyk2 kinase domain fell in the range of 0.1 to 1 µM; against JAK1 (setting [1]), 1 to 10 µM; against JAK2 it was 0.1 to 1 µM; on JAK3, 1 to 10 µM.

Take `C[C@H](CC(F)(F)F)n1cc(-c2nc(-c3cnn(C[C@@H](O)CO)c3)cn3nccc23)cn1` [Example 194, (R)-3-(4-(4-(1-((R)-4,4,4-trifluorobutan-2-yl)-1H-pyrazol-4-yl)pyrazolo[1,5-a]pyrazin-6-yl)-1H-pyrazol-1-yl)propane-1,2-diol hydrochloride]: the IC50 against Human Tyk2 kinase domain was 0.1 to 1 µM; against JAK1 (setting [1]), 1 to 10 µM; at JAK2, 0.1 to 1 µM; against JAK3, 1 to 10 µM.

With `C[C@@H](CC(F)(F)F)n1cc(-c2nc(-c3cnn(C[C@@H](O)CO)c3)cn3nccc23)cn1` [Example 195, (R)-3-(4-(4-(1-((S)-4,4,4-trifluorobutan-2-yl)-1H-pyrazol-4-yl)pyrazolo[1,5-a]pyrazin-6-yl)-1H-pyrazol-1-yl)propane-1,2-diol hydrochloride], the IC50 fell in the range of 0.1 to 1 µM at Human Tyk2 kinase domain, 1 to 10 µM at JAK1 (setting [1]), 0.1 to 1 µM against JAK2 and 1 to 10 µM against JAK3.

Turning to `CC[C@H](n1cc(-c2nc(-c3cnn(C[C@@H](O)CO)c3)cn3nccc23)cn1)C(C)(F)F` [Example 198, (R)-3-(4-(4-(1-((S)-2,2-difluoropentan-3-yl)-1H-pyrazol-4-yl)pyrazolo[1,5-a]pyrazin-6-yl)-1H-pyrazol-1-yl)propane-1,2-diol], the IC50 fell in the range of 0.1 to 1 µM against Human Tyk2 kinase domain, 1 to 10 µM against JAK1 (setting [1]), 0.1 to 1 µM against JAK2 and 1 to 10 µM against JAK3.

As to `CC[C@@H](CC1CC1)n1cc(-c2nc(-c3cnn(C[C@@H](O)CO)c3)cn3nccc23)cn1` [Example 205, (R)-3-(4-(4-(1-((S)-1-cyclopropylbutan-2-yl)-1H-pyrazol-4-yl)pyrazolo[1,5-a]pyrazin-6-yl)-1H-pyrazol-1-yl)propane-1,2-diol], the IC50 lay in the range of 0.01 to 0.1 µM against Human Tyk2 kinase domain, 0.1 to 1 µM on JAK1 (setting [1]), 0.01 to 0.1 µM on JAK2 and 1 to 10 µM at JAK3.

Consider `CC[C@H](CC(F)(F)F)n1cc(-c2nc(-c3cnn(C(CO)CO)c3)cn3nccc23)cn1` [Example 211, (R)-2-(4-(4-(1-(1,1,1-trifluoropentan-3-yl)-1H-pyrazol-4-yl)pyrazolo[1,5-a]pyrazin-6-yl)-1H-pyrazol-1-yl)propane-1,3-diol], for which the IC50 was 0.01 to 0.1 µM against Human Tyk2 kinase domain, 0.1 to 1 µM against JAK1, 0.01 to 0.1 µM against JAK2 and 1 to 10 µM on JAK3.

Take `CC[C@H](C1CC1)n1cc(-c2nc(-c3cnn(C(CO)CO)c3)cn3nccc23)cn1` [Example 215, (R)-2-(4-(4-(1-(1-cyclopropylpropyl)-1H-pyrazol-4-yl)pyrazolo[1,5-a]pyrazin-6-yl)-1H-pyrazol-1-yl)propane-1,3-diol]: the IC50 fell in the range of 0.01 to 0.1 µM at Human Tyk2 kinase domain, 0.1 to 1 µM at JAK1 (setting [1]), 0.01 to 0.1 µM against JAK2 and 1 to 10 µM against JAK3.

Turning to `OC[C@H](O)Cn1cc(-c2cn3nccc3c(-c3cnn(C(C4CC4)C4CC4)c3)n2)cn1` [Example 216, (R)-3-(4-(4-(1-(dicyclopropylmethyl)-1H-pyrazol-4-yl)pyrazolo[1,5-a]pyrazin-6-yl)-1H-pyrazol-1-yl)propane-1,2-diol], the IC50 against Human Tyk2 kinase domain lay in the range of 0.1 to 1 µM; against JAK1, 1 to 10 µM; against JAK2, 0.1 to 1 µM; at JAK3, 1 to 10 µM.

On to `C[C@@H]1CC[C@@H]1n1cc(-c2nc(-c3cnn(C[C@@H](O)CO)c3)cn3nccc23)cn1` [Example 217, (R)-3-(4-(4-(1-(cis-2-methylcyclobutyl)-1H-pyrazol-4-yl)pyrazolo[1,5-a]pyrazin-6-yl)-1H-pyrazol-1-yl)propane-1,2-diol], for which the IC50 was in the range of 0.1 to 1 µM against Human Tyk2 kinase domain, 1 to 10 µM against JAK1 (setting [1]), 0.1 to 1 µM against JAK2 and 1 to 10 µM against JAK3.
